Experimental data from patent US11718645B2, “Macrocyclic therapeutic agents, methods of manufacture, and methods of treatment” (University of Florida Research Foundation, Incorporated, priority 2014, dated 2023).

Tests used:
[1] = system: met proto-oncogene (MET) receptor; assay: Immunoblot analysis for RTK (MET) levels in HCT116 cells; format: cell-based, human; conditions: for activity compared with apratoxin S4 (BK) in all biological assays: HCT116, MET levels, cell viability, VEGF-A secretion
Procedure: HCT116 cells were seeded in 6-well plates at a density of 4×10^5 cells and the next day treated with various concentrations of apratoxins or solvent control. 24 h later, whole cell lysates were collected using PhosphoSafe buffer (EMD Chemicals, Inc, Gibbstown, N.J.). The protein concentration was measured with the BCA Protein Assay kit (Thermo Fisher Scientific, Rockford, Ill.). Lysates containing equal amounts of protein were separated by SDS polyacrylamide gel electrophoresis (4-12%), transferred to polyvinylidene difluoride membranes, probed with primary and secondary antibodies, and detected with the SuperSignal West Femto Maximum Sensitivity Substrate (Thermo Fisher Scientific). Anti-Met and secondary anti-mouse antibodies were from Cell Signaling Technology, Inc. (Danvers, Mass.).

[2] = Cellular stability in HCT116 cell lysate; format: in vitro ADME, human; conditions: HCT116 protein lysate 0.7 mg/mL, up to 24 h, FIG. 2D
Procedure: Aliquots of HCT116 cell lysates were diluted with 25 mM Tris-HCl buffer, pH 8.0, to give a final reaction volume of 100 μL and protein concentration of 0.7 mg/mL. Cell lysate solutions were incubated with 10 μL of apratoxin A, BK, BL, BM, or BN (25 μg/mL) for 0.25 min to 24 h (nine time points). Remaining apratoxin A, BK, BL, BM, or BN were extracted from the reaction solution at the end of the incubation periods with ethyl acetate using the same procedure as described for the plasma stability assay.
(§1) Analysis of apratoxin A, S4 (BK), S7 (BL), S8 (BM) and S9 (BN) was done by using HPLC-MS [column, Onyx Monolithic C18 (3.0×100 mm), Phenomenex (Torrance, Calif.); solvent, water (solvent A) acetonitrile (solvent B); flow rate, 0.5 ml/min; detection by electrospray ionization-MS in positive ion mode (MRM scan)]. A stepwise gradient elution was used starting at 60% B and 40% A, then increasing to 80% B at 5 min and maintained at this condition for 5 min. Parameters were optimized before analysis by using direct syringe infusion. The retention times (tR, min; MRM ion pair) of the analytes and internal standard are as follows: harmine (2.2; 213.1→169.9), apratoxin A (4.7; 841.4→445.2), apratoxin S4 (BK) (4.1; 828.5→432.2), apratoxin S7 (BL) (4.05; 814.5→418.2), apratoxin S8 (BM) (5.2; 842.5→446.2), apratoxin S9 (BN) (4.9; 828.5→432.2). Compound-dependent parameters used were as follows: apratoxin A, declustering potential (DP) 51, entrance potential (EP) 12, collision energy (CE) 45, collision cell exit potential (CXP) 6, collision cell entrance potential (CEP) 32; and harmine, DP 56.0, EP 4.5, CE 44.0, CXP 5, CEP 16.0. Source gas parameters used were as follows: curtain gas, 15.0; collision gas low, ionspray voltage 5500; temperature, 600.0; ion source gas 150.0; ion source gas 2 60.0.
(§2) Calibration curves for apratoxin A, S4 (BK), S7 (BL), S8 (BM) and S9 (BN) in the presence of mouse serum, HCT116 cell lysates, and aqueous solutions were generated by least-square linear regression analysis of the analyte peak area and internal standard peak area ratio against the nominal concentration of the standard solutions. A linear regression analysis was performed, and the concentration of remaining apratoxins at each time point was determined through interpolation for plasma, cellular, and aqueous stability experiments. The amount of remaining apratoxins with microsome incubation was determined from the peak area ratio of apratoxins at tx (3 min to 3 h) and t0. All calculations were done by using Analyst 1.4.2 (Applied Biosystems) Quantitate Mode.

HCT116 cells = assay: Cell viability assay (MTT); format: cell-based, human; conditions: for IC50: determined after 48 h (n = 4)
Procedure: (§3) Human colon adenocarcinoma HCT116 cells were purchased from ATCC (Manassas, Va.) and cultured in Dulbecco's modified Eagle's medium (Invitrogen, Carlsbad, Calif.) supplemented with 10% fetal bovine serum (HyClone, Logan, Utah) at 37° C. humidified air and 5% CO2.
HCT116 cells were seeded at a density of 1×10^4 cells per well in 96-well plates. 24 h later the cells were treated with various concentrations of apratoxins or solvent control. After 48 h of incubation, cell viability was detected using MTT according to the manufacturer's instructions (Promega, Madison, Wis.).

[3] = Plasma stability in mouse serum; format: in vitro ADME; conditions: up to 24 h, FIG. 2C
Procedure: In vitro plasma stability of apratoxin A, S4 (BK), S7 (BL), S8 (BM) and S9 (BN) was done by using a modification of a published method [Chen, X.; Gardner, E. R.; Figg, W. D. J. Chromatogr. B Analyt. Technol. Biomed. Life Sci. 2008, 86, 153-158]. Ten microliters of apratoxin A, BK, BL, BM, or BN (25 μg/mL) were added to 100 μL of mouse serum, and the solution was vortex-mixed for 15 s and incubated for 0.25 min to 24 h (11 time points). At the end of each incubation period, 400 μL of ethyl acetate was added to each tube, followed by 200 μL of harmine to quench the reaction and to extract the remaining apratoxin A or S4 (BK), S7 (BL), S8 (BM) and S9 (BN). Samples were further incubated in a thermomixer at 27° C. (750 rpm, 5 min) and later centrifuged for 5 min at 1643 g. The ethyl acetate layer was collected and evaporated to dryness under nitrogen. Samples were reconstituted in 50 μL of acetonitrile. A volume of 10 μL of the reconstituted solution was injected into the HPLC-MS system.
as §1, with “Compound-dependent parameters used were as follows: apratoxin A, declustering potential (DP) 51, entrance potential (EP) 12, collision energy (CE) 45, collision cell exit potential (CXP) 6, collision cell entrance potential (CEP) 32; and harmine, DP 56.0, EP 4.5, CE 44.0, CXP 5, CEP 16.0. Source gas parameters used were as follows: curtain gas, 15.0; collision gas low, ionspray voltage 5500; temperature, 600.0; ion source gas 150.0; ion source gas 2 60.0.” left out
as §2

VEGF-A secretion = assay: Measurement of VEGF-A production (alphaLISA) in HCT116 culture supernatants; format: cell-based, human; conditions: for IC50: determined after 12 h (n = 3)
Procedure: as §3
HCT116 cells (1×10^4 cells per well) were seeded in 96-well plates and one day later treated with various concentrations of apratoxins or solvent control. After 12 h of incubation, culture supernatants were collected for detection of VEGF-A by using an alphaLISA kit (PerkinElmer, Waltham, Mass.) following the manufacturer's instructions. Briefly, acceptor bead and anti-VEGF antibody were incubated first with the supernatants for 60 min, donor beads were added later and incubated for another 30 min and then VEGF-A levels detected using Envision (PerkinElmer).

Row | Structure (SMILES) | activity compared with apratoxin S4 (BK) in all biological assays [1] | cellular stability [2] | IC50 (HCT116 cells) | plasma stability [3] | IC50 (VEGF-A secretion) | potency in reducing levels of MET receptor ([1]; HCT116, immunoblot, 24 h, FIG. 1) | potency relative to the other apratoxins, MET levels ([1]; HCT116, immunoblot, FIG. 1) | potency relative to the other apratoxins, cell viability (HCT116 cells) | potency relative to the other apratoxins, VEGF-A secretion (VEGF-A secretion)
1 | CC[C@H](C)[C@H]1C(=O)N2CCC[C@@H]2C(=O)O[C@H](C(C)(C)C)C[C@@H](C)C[C@H](O)CC2=N[C@@H](CCC(=O)N[C@@H](Cc3ccc(OC)cc3)C(=O)N(C)[C@@H](C)C(=O)N1C)CS2 [apratoxin S7 (BL), Apratoxin S7] | retained potent activity | excellent | 1.25 nM | excellent | 0.3 nM | – | – | – | –
2 | CC[C@H](C)[C@H]1C(=O)N2CCC[C@@H]2C(=O)O[C@H](C(C)(C)C)C[C@@H](C)C[C@H](O)[C@H](C)C2=N[C@H](CCC(=O)N[C@@H](Cc3ccc(OC)cc3)C(=O)N(C)[C@@H](C)C(=O)N1C)CS2 [apratoxin S9 (BN), Apratoxin S9] | retained potent activity | excellent | 0.69 nM | excellent | 0.12 nM | superior, picomolar (sub-nanomolar) potency | 2-3 fold | 2-3 fold | 2-3 fold
3 | CC[C@H](C)[C@H]1C(=O)N2CCC[C@@H]2C(=O)O[C@H](C(C)(C)C)C[C@@H](C)C[C@H](O)C(C)(C)C2=N[C@@H](CCC(=O)N[C@@H](Cc3ccc(OC)cc3)C(=O)N(C)[C@@H](C)C(=O)N1C)CS2 [apratoxin S8 (BM), Apratoxin S8] | retained potent activity | excellent | 1.99 nM | excellent | 0.47 nM | – | – | – | –
